The target of data set [1] is T1, WD repeat-containing protein 5 (Homo sapiens, UniProt P61964). Briefly: Inhibition of 5- FAM labeled tracer binding to N-terminal His6-SUMO-tagged WDR5 (24 to 334 residues) (unknown origin) expressed in Escherichia coli Rosetta 2 (DE3) cells incubated for 3 hrs by fluorescence polarization based competitive binding assay. (Fluorescence polarisation rises when a labelled molecule tumbles more slowly, as on binding a larger partner.)

Data set [2] relates to MV4-11. Kind of data set: Anti-proliferative activity against human MV4-11 cells assessed as inhibition of cell proliferation incubated for 5 days by Cell Titre Glo luminescent assay. The conditions noted are these: time 5 day. Type of data set: functional.
Data set [3] in a line: Effective permeability of compound in PBS at pH 7.4 at 100 uM incubated for 5 hrs by PAMPA assay. The format is ADME. To be noted: pH 7.4, 5 h. For orientation: The PAMPA barrier holds no transporters, so it reflects passive diffusion.
The nature of data set [4]: Clearance in CD-1 mouse at 3 mg/kg, iv measured 0.083 to 24 hrs post-treatment by LC-MS/MS analysis. The conditions noted are these: in vivo, BLD = below limit of detection.
A further data set relates to MOLM-13. Kind of data set: Anti-proliferative activity against human MOLM-13 cells assessed as inhibition of cell proliferation incubated for 5 days by Cell Titre Glo luminescent assay. The conditions noted are these: time 5 day. Type of data set: functional.
For data set [5], the target named is T1, WD repeat-containing protein 5. Briefly: Inhibition of N-terminal 6xHis-SUMO-tagged human WDR5 (22 to 334 residues) expressed in Escherichia coli BL21-Gold (DE3) cells assessed as inhibition constant incubated for 1 hr by TR-FRET assay. In general terms: Time-resolved FRET reads energy transfer from a long-lived donor to a nearby acceptor.
Data set [6] is described as follows: Acute toxicity in CD-1 mouse assessed as reduced locomotive activity at 3 mg/kg, iv measured 0.083 to 24 hrs post-treatment by LC-MS/MS analysis. Type of data set: organism-based. To be noted: in vivo, time 0.083-24 hrs.
Data set [7] is described as follows: Kinetic aqueous solubility of compound at pH 7.4. The conditions noted are these: buffer. The format is physicochemical.
Another data set concerns K562. Kind of data set: Anti-proliferative activity against human K562 cells assessed as inhibition of cell proliferation incubated for 5 days by Cell Titre Glo luminescent assay. To be noted: time 5 day. The format is functional.
Data set [8] in a line: Acute toxicity in CD-1 mouse assessed as lowered body temperature at 3 mg/kg, iv measured 0.083 to 24 hrs post-treatment by LC-MS/MS analysis. Type of data set: organism-based. The conditions noted are these: in vivo, time 0.083-24 hrs.
Data set [9] in a line: Volume of distribution at steady state in CD-1 mouse at 3 mg/kg, iv measured 0.083 to 24 hrs post-treatment by LC-MS/MS analysis. Type of data set: ADME, organism-based. The conditions noted are these: in vivo, time 0.083-24 hrs; for Vdss: mouse, iv, 3 mg/kg; for Vd: CD-1, mouse, read-out: Vdss.
Data set [10] is described as follows: Acute toxicity in CD-1 mouse assessed as lethality at 3 mg/kg, iv measured 0.083 to 24 hrs post-treatment by LC-MS/MS analysis. The format is organism-based. To be noted: in vivo, time 0.083-24 hrs.
Data set [11] is described as follows: AUC (0 to infinity) in CD-1 mouse at 3 mg/kg, iv measured 0.083 to 24 hrs post-treatment by LC-MS/MS analysis. Type of data set: ADME, organism-based. Also noted: time upper 24 hrs, time lower 0.083 hrs, dose 3 mg/kg, route iv. The conditions noted are these: in vivo; for AUC: mouse; for AUC(0-inf): CD-1, mouse.
Data set [12] in a line: Kinetic solubility of compound in PBS at pH 7.4 at 100 uM incubated for 1 hr by UV-visible spectroscopy analysis. The conditions noted are these: for solubility kinetic at 1 h, 100 µM: PBS, pH 7.4, read-out: Kinetic_solubility. The format is physicochemical.
Data set [13] can be described thus: Clearance in CD-1 mouse at 3 mg/kg, iv measured 0.083 to 24 hrs post-treatment by LC-MS/MS analysis. The conditions noted are these: in vivo, time 0.083-24 hrs. Type of data set: ADME, organism-based.
A short description of data set [14]: AUC (0 to infinity) in CD-1 mouse at 10 mg/kg, po measured 0.083 to 24 hrs post-treatment by LC-MS/MS analysis. Type of data set: ADME, organism-based. Set-up: dose 10 mg/kg, time upper 24 hrs, time lower 0.083 hrs, route po. The conditions noted are these: in vivo; for AUC(0-inf): CD-1, mouse.
Data set [15] can be described thus: Half life in CD-1 mouse at 10 mg/kg, po measured 0.083 to 24 hrs post-treatment by LC-MS/MS analysis. Type of data set: ADME, organism-based. To be noted: in vivo, time 0.083-24 hrs; for half-life: CD-1, mouse.
Data set [16] can be described thus: Cmax in CD-1 mouse at 10 mg/kg, po measured 0.083 to 24 hrs post-treatment by LC-MS/MS analysis. The format is ADME, organism-based. Also noted: time lower 0.083 hrs, dose 10 mg/kg, time upper 24 hrs, route po. The conditions noted are these: in vivo.
Data set [17] can be described thus: Oral bioavailability in CD-1 mouse at 10 mg/kg measured 0.083 to 24 hrs post-treatment by LC-MS/MS analysis. The format is ADME, organism-based. To be noted: in vivo, time 0.083-24 hrs; for bioavailability: CD-1, mouse.
A short description of data set [18]: Metabolic stability of compound in rat liver microsome assessed as half life at 1 uM measured upto 45 mins by LCMS analysis. The format is ADME, microsomes. To be noted: for t1/2: microsomes, 0.75 h, 1 µM.
Data set [19] is described as follows: Metabolic stability of compound in rat liver microsome assessed as intrinsic clearance at 1 uM measured upto 45 mins by LCMS analysis. Type of data set: ADME, microsomes. The conditions noted are these: for CLH: microsomes, 0.75 h, 1 µM.
The target of data set [20] is T1, WD repeat-containing protein 5. Kind of data set: Competitive binding affinity to N-terminal 6xHis-SUMO-tagged human WDR5 (22 to 334 residues) expressed in Escherichia coli BL21-Gold (DE3) cells assessed as inhibition constant using 10-mer-Thr-FAM peptide as substrate incubated for 1 hr by Lantha Screen based TR-FRET assay.
In data set [21] the target is Histone-lysine N-methyltransferase 2A/WDR5 (Homo sapiens, UniProt P61964). Kind of data set: Inhibition of MLL1-WDR5 (unknown origin) interaction using 10mer-Thr-FAM as substrate by fluorescence polarization based competitive binding assay. The format is protein assay.
Data set [22] concerns MV4-11. Kind of data set: Anti-proliferative activity against human MV4-11 cells harboring MLL fusion protein assessed as inhibition of cell viability treated for 72 hrs by CCK-8 assay. To be noted: MV4-11, 72 h. Type of data set: functional, cell-based.

SMILES strings stand for the structures. In brackets after ≈: the same amount, converted by molar mass. Bounds are passed on as bounds.

In turn, `CC[C@@H]1NC(=O)[C@H](CCCNC(=N)NC)NC(=O)[C@](C)(NC(=O)C(C)C)CCNC(=O)[C@@H](c2ccccc2)NC1=O` had an inhibition constant Ki in data set [1] of under 1 nM.
For `COc1cc(CN2CCc3c(cc(Cn4ccn(C)c4=N)cc3-c3ccc(F)cc3C)C2=O)cc(OC)c1`, the GI50 in the data set with MV4-11 [2] (Homo sapiens, MV4-11, 120 h) was 38 nM; in the data set with MOLM-13 (Homo sapiens, MOLM-13, 120 h), 78 nM; with K562 (Homo sapiens, K562, 120 h), 8000 nM. Moreover, the permeability in data set [3] is reported as < 0.6 10^-6 cm/s. The CL entry in data set [4] is recorded as “Bld”. In data set [5], the inhibitory constant (Ki) is under 0.02 nM. Further, the Activity entry in data set [6], in data set [8] and in data set [10] was “Toxic” throughout. In data set [7], this molecule gave a Kinetic_solubility of 29 µM. The same molecule came in with a Vdss in data set [9] of 16 L/kg. Also, the AUC in data set [11] came to 642 ng·h/mL.
Regarding `CCn1cc(-c2cc(Cn3ccnc3)cc3c2CCN([C@@H](c2cc(OC)ccn2)C2CC2)C3=O)c(C(F)(F)F)n1`, the concentration for 50% growth inhibition (GI50) amounted to 13 nM in the data set with MV4-11 [2] (Homo sapiens, MV4-11, 120 h); 27 nM in the data set on MOLM-13 (Homo sapiens, MOLM-13, 120 h); 3700 nM in the data set on K562 (Homo sapiens, K562, 120 h). Also, the solubility kinetic at 1 h, 100 µM in data set [12] is 60 µM (≈ 33 µg/mL). The molecule further registered a clearance in [13] of 26 mL/min/kg. In addition, the AUC(0-inf) in data set [14] was 3980 ng·h/mL; in data set [11], 1950 ng·h/mL. In addition, the half-life in [15] was 1.3 h. Besides, in data set [9], the Vd was determined as 1.6 L/kg. The Cmax in data set [16] (CD-1, mouse, read-out: Cmax) amounted to 2080 ng/mL. The molecule also displayed a bioavailability in data set [17] of 61%.
`COc1ccnc(CN2CCc3c(cc(Cn4ccnc4C)cc3-c3cn(C)nc3C(F)(F)F)C2=O)c1`: in [18], the t1/2 stood at 0.0533 h. For the same molecule, the CLH in data set [19] came to 220 µL/min/mg. Moreover, the GI50 in the data set with MV4-11 [2] (Homo sapiens, MV4-11, 120 h) was determined as 24 nM; with MOLM-13 (Homo sapiens, MOLM-13, 120 h), 39 nM; in the data set on K562 (Homo sapiens, K562, 120 h) it was 9500 nM. In addition, the Ki in data set [20] is under 0.02 nM.
In the case of `CN1CCN(c2cc(F)c(-c3ccc(NC(=O)N(C)C)cc3)cc2Nc2ncnc(Cl)c2N)CC1`, the figures for the IC50 (in data set [21]; with MV4-11 [22]) were 29 nM and 12600 nM, respectively.
Take `CCn1cc(-c2cc(Cn3ccnc3C)cc3c2CCN([C@@H](c2cc(OC)ccn2)C2CC2)C3=O)c(C(F)(F)F)n1`: the GI50 in the data set with MV4-11 [2] (Homo sapiens, MV4-11, 120 h) was determined as 15 nM; in the data set with MOLM-13 (Homo sapiens, MOLM-13, 120 h) it was 36 nM; in the data set with K562 (Homo sapiens, K562, 120 h), 2600 nM. For the same molecule, the solubility kinetic at 1 h, 100 µM in data set [12] was found to be 65 µM (≈ 36.7 µg/mL). Moreover, in data set [13], the clearance turned out to be 41 mL/min/kg. In addition, the AUC(0-inf) came out at 508 ng·h/mL in data set [14] and 1240 ng·h/mL in data set [11]. In addition, the half-life in data set [15] is 1.4 h. Further, the Vd in [9] came to 1.6 L/kg. Besides, the Cmax in data set [16] (CD-1, mouse, read-out: Cmax) came to 652 ng/mL. This molecule also yielded a bioavailability in [17] of 12%.
For the molecule `CCn1cc(-c2cc(Cn3ccnc3C)cc3c2CCN([C@@H](C)c2cc(OC)ccn2)C3=O)c(C(F)(F)F)n1` (stereo in doubt; 34), the t1/2 in data set [18] was 0.2 h; in data set [15] (mouse, po, 10 mg/kg), 1.2 h. For the same molecule, in [19], the CLH came out at 60 µL/min/mg. Further, the concentration for 50% growth inhibition (GI50) with MV4-11 [2] (Homo sapiens, MV4-11, 120 h) was found to be 11 nM; with MOLM-13 (Homo sapiens, MOLM-13, 120 h) it was 26 nM; in the data set with K562 (Homo sapiens, K562, 120 h), 2200 nM. The Kinetic_solubility in data set [12] (buffer, pH 7.4, 1 h, 100 µM) amounted to 80 µM. For the same molecule, the Ki in data set [20] was under 0.02 nM. Moreover, the AUC came out at 397 ng·h/mL in [14] (mouse) and 429 ng·h/mL in data set [11]. Further, the Vdss in [9] stood at 3.8 L/kg. Further, the Cmax in data set [16] (mouse) came out at 279 ng/mL. The F in data set [17] (mouse, po, 10 mg/kg) was 28%.
Turning to `CCn1cc(-c2cc(Cn3ccnc3C)cc3c2CCN([C@@H](C)c2cc(OC)ccn2)C3=O)c(C(F)(F)F)n1` (stereo in doubt; 38), the half-life at 1 µM in data set [18] (liver microsomes) worked out at 0.367 h. Moreover, in data set [19] (liver microsomes, read-out: CLH), the microsomal CLint at 1 µM worked out at 31 µL/min/mg. Also, the figures for the GI50 with MV4-11 [2] (120 h), with MOLM-13 (120 h) and with K562 (120 h) were 9.7 nM, 19 nM and 1900 nM, respectively. In addition, in data set [12], the solubility kinetic at 1 h, 100 µM is 86 µM (≈ 46.3 µg/mL). The same molecule showed a clearance in data set [13] of 76 mL/min/kg. Also, the total exposure AUC(0-inf) came out at 1710 ng·h/mL in [14] and 707 ng·h/mL in data set [11]. Moreover, in data set [9], the Vd came to 2.3 L/kg. Moreover, the Cmax in data set [16] (CD-1, mouse, read-out: Cmax) came out at 2010 ng/mL. The same molecule registered a bioavailability in data set [17] of 73%.

By Ki is commonly meant a dissociation constant, usually derived from enzyme kinetics or from competition with a known ligand. For orientation: GI50 means the concentration at which growth is held to half of that of the control. In general, Vdss refers to the apparent volume that relates the amount in the body to the concentration in plasma or blood. Low values mean little distribution into tissue, high ones wide distribution into tissue. The term AUC denotes the area under the concentration-time curve, a measure of exposure. What is called clearance is the volume of plasma or blood freed of the substance per unit of time. A lower clearance goes with a low capacity for elimination. As a reminder, the AUC(0-inf) is the area under the concentration-time curve extrapolated to infinity. Low readings indicate less exposure, high ones more exposure. The half-life is the time in which the quantity being followed falls by half. Broadly, the Cmax is the peak of the concentration-time curve. The bioavailability is the share of a dose that reaches the circulation, judged against a reference dose that is usually intravenous. Higher therefore signals much systemic uptake. For orientation: IC50 means the concentration at which inhibition is half-maximal.

These data come from ChEMBL document CHEMBL5154875, “Discovery of Potent Orally Bioavailable WD Repeat Domain 5 (WDR5) Inhibitors Using a Pharmacophore-Based Optimization” (J Med Chem, 2022).
